Converted amounts (≈) assume the structure as drawn.
Experiments:
[1] = system: IAV; assay: Time-of-drug-addition assay, viral RNA transcript levels via qRT-PCR; type: cell-based, influenza A virus (PR8-GFP)
[2] = system: IAV; assay: Western blot analysis of IAV HA protein level after time-of-drug-addition treatment; type: cell-based, influenza A virus (PR8-GFP)
[3] = target: HA1 (Influenza A virus, UniProt P03452); assay: Hemagglutination inhibition assay with chicken red blood cells; details: IAV treated with 1 µg/mL, cRBC 0.5%
HA1, sequence (P03452 18-343 limits assumed): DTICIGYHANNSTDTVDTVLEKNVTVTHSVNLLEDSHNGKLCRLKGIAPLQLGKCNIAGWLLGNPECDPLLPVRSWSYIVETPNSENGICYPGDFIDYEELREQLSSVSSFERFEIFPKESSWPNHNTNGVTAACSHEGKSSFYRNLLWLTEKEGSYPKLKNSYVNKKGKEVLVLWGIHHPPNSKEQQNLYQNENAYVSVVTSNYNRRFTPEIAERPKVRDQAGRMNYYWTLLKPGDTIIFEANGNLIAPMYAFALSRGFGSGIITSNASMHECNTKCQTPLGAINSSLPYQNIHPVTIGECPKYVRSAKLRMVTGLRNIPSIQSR
HA1, sequence (P03452 344-565 partner limits assumed): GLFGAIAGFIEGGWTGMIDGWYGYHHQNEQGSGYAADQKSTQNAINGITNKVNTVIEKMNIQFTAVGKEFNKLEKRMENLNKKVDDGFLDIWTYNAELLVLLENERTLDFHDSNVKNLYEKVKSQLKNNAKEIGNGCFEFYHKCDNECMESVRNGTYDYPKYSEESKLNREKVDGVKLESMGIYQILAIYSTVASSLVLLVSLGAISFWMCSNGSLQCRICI

[4] = system: adenovirus; assay: Adenovirus plaque assay; details: virus pre-treated 1 h at room temperature, 293A cells
[5] = system: IBV; assay: Plaque reduction assay, IBV; details: Influenza B virus, MDCK, read-out: 50% inhibitory concentration (IC50) for IBV, virus pre-treated 1 h at room temperature, MDCK cells, MOI 0.001, plaque assay 48 h after infection
[6] = system: MDCK cells; assay: Cytotoxicity / MTT assay; type: cell-based, canine; details: 48 h, up to a concentration of 10 µg/mL
Procedure: To clarify whether the inhibitory activities of ethyl pheophorbides a and b are mediated through cytotoxicity, MDCK cells were treated with different concentrations of each compound and cell viability was determined after 48 h via the MTT assay (Figure S7).
After a 4 h period, tetrazolium crystals were dissolved with DMSO and absorbance was measured at 560 nm.

[7] = system: IAV; assay: Plaque reduction assay, IAV; type: cell-based, influenza A virus (PR8-GFP); details: Influenza A virus, MDCK, virus pre-treated 1 h at room temperature, MDCK cells, MOI 0.01, plaque assay 48 h after infection; read-out: 50% inhibitory concentration (IC50) for IAV
Procedure: All experiments were performed in triplicate.

[8] = target: HA2 (Influenza A virus, UniProt P03452); assay: Hemolysis inhibition assay with chicken red blood cells; details: IAV treated with 1 µg/mL, cRBC 2%, pH 5.2
HA2, sequence (P03452 344-565 limits assumed): as the sequence (P03452 344-565 partner limits assumed) above
HA2, sequence (P03452 18-343 partner limits assumed): as the sequence (P03452 18-343 limits assumed) above

[9] = target: IAV NA (Influenza A virus, UniProt P03468); type: biochemical
IAV NA, sequence (P03468 whole entry, looked up): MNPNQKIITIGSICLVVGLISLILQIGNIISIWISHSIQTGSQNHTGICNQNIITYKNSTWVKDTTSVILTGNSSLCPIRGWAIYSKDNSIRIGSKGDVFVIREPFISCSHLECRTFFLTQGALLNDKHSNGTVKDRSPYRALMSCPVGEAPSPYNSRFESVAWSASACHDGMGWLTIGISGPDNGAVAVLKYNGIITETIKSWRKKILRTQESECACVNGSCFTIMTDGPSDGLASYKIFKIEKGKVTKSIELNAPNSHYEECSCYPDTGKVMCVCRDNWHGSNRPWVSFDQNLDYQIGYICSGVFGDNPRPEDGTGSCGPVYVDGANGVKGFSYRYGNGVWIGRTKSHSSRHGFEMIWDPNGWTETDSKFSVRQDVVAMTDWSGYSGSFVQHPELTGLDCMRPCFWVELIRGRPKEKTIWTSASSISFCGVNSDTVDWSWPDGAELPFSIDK

SMILES: NC12CC3CC(CC(C3)C1)C2 [Amantadine, reference compound]
- IAV replication (viral RNA transcript level) ([1]; treatment during virus adsorption to host cells, 1 mM): marked decrease
- IAV HA protein level ([2]; treatment during adsorption, 1 mM, western blot): marked downregulation

SMILES: C=CC1=C(C)c2cc3[nH]c(c4c5nc(cc6[nH]c(cc1n2)c(C)c6CC)C(C)=C5C(=O)C4C(=O)OC)C(CCC(=O)OCC)C3C (centres unmarked) [ethyl pheophorbide a]
- IAV transcript levels [1]: significantly reduced
- expression of IAV HA protein [2]: significantly suppressed
- hemagglutination inhibition (HA1 function) [3]: no effect
- effect against non-enveloped adenovirus [4]: no effect
- IC50 [5]: 1.62 ± 0.86 µg/mL (≈ 2.61 µM)
- cell viability (MTT) [6]: no adverse effects on cell viability
- IC50 [7]: 0.086 ± 0.072 µg/mL (≈ 0.139 µM)
- hemolysis inhibition (HA2 function) [8]: no effect
- effect on IAV NA activity [9]: no effects

SMILES: C=CC1=C(C)c2cc3[nH]c(c4c5nc(cc6[nH]c(cc1n2)c(C=O)c6CC)C(C)=C5C(=O)C4C(=O)OCC)C(CCC(=O)O)C3C (centres unmarked) [ethyl pheophorbide b]
- IAV transcript levels [1]: significantly reduced
- expression of IAV HA protein [2]: significantly suppressed
- hemagglutination inhibition (HA1 function) [3]: no effect
- effect against non-enveloped adenovirus [4]: no effect
- IC50 [5]: 3.17 ± 0.94 µg/mL (≈ 5.11 µM)
- cell viability (MTT) [6]: no adverse effects on cell viability
- IC50 [7]: 0.094 ± 0.058 µg/mL (≈ 0.151 µM)
- hemolysis inhibition (HA2 function) [8]: no effect
- effect on IAV NA activity [9]: no effects

Source: publication PMC9822050, “Antiviral Activities of Ethyl Pheophorbides a and b Isolated from Aster pseudoglehnii against Influenza Viruses” (Molecules, 2022)
